This is an account of results in US9676771B2, “Compounds for inhibiting drug-resistant strains of HIV-1 integrase” (priority 2013, dated 2017).

Data set [1] has as its system HIV-1 constructs containing wild-type IN. Briefly: microbe, parasite or virus in culture. It is filed as cell-based. To be noted: Human immunodeficiency virus 1; Table 8; WT IN; read-out: EC50 (nM, WT).
The test system of data set [2] is HIV-1 constructs containing mutant IN R263K. As to the kind of experiment: Single-round HIV-1 infectivity assay, IN mutant R263K. The format is cell-based. The settings on record: Human immunodeficiency virus 1; Table 8; read-out: EC50 (nM, IN mutants) R263K. In a few lines:
(§1)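 Mutant integrase sequences placed by site-directed mutagenesis into pNLNgoMIVR^−ΔEnv.LUC luciferase reporter virus, supernatants from 293 cells used for single-round infection; virus added after compound, 48 hrs at 37° C. Luciferase normalized to infectivity without compound; EC50 from regression fit.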

Data set [3] concerns HIV-1 constructs containing mutant IN G118R. As to the kind of experiment: microbe, parasite or virus in culture. The format is cell-based. To be noted: Human immunodeficiency virus 1; Table 8; read-out: EC50 (nM, IN mutants) G118R. In outline:
as §1

The nature of another data set: in vitro. The format is cell-based, human. The settings on record: human, Table 8; 50% reduction in the level of ATP in HOS cells. In outline:
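Cells exposed to compounds over a concentration range for 48 hrs at 37° C. Viability read as cellular ATP by luciferase (ATPlite) luminescence after lysis, normalised to untreated cells; CC50 derived by regression fit.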

The target in a further data set is HIV-1 integrase (Human immunodeficiency virus type 1 group M subtype B, UniProt P12497). Briefly: biochemical. The settings on record: Table 10; strand transfer; read-out: IC50 (nM, ST). It is filed as biochemical. In outline:
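Compounds or DMSO added to 20 nM DNA and 400 nM integrase in 50 mM MOPS pH 7.2, 7.5 mM MgCl2, 14 mM 2-mercaptoethanol; 2 h at 37° C, quenched with formamide/SDS loading buffer. Products resolved on gels, imaged and quantified by densitometry.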

Take `O=C(NCc1ccc(F)cc1F)c1c(O)c2c(CO)ccnc2n(O)c1=O` [XZ440, N-(2,4-Difluorobenzyl)-1,4-dihydroxy-5-(hydroxymethyl)-2-oxo-1,2-dihydro-1,8-naphthyridine-3-carboxamide]: the EC50 (as a rule, the concentration giving half of the maximal effect) in data set [1] turned out to be 7.3 nM; in data set [2] it was 4 ± 1.4 nM; in data set [3], 23 nM. For the same molecule, the CC50 (usually the concentration that lowers cell viability or growth by half) in the data set “in vitro” was over 250000 nM. The half-maximal inhibitory concentration (IC50) (as a rule, the concentration that gives 50% inhibition) on HIV-1 integrase is 14.5 ± 0.8 nM.
